Test results from ChEMBL document CHEMBL2046380, “Synthesis and structure-activity relationship of disubstituted benzamides as a novel class of antimalarial agents” (Bioorg Med Chem Lett, 2012).
pEC50: −log10 of the molar value.

What was measured:
BJ = test: Cytotoxicity against human BJ cells after 72 hrs by […] CellTiterGlo reagent assay; assay type: cell-based
Raji = test: Cytotoxicity against human Raji cells after 72 hrs by […] CellTiterGlo reagent assay; assay type: cell-based
Plasmodium falciparum [1] = test: Antimalarial activity against chloroquine-sensitive Plasmodium falciparum 3D7 incubated for 72 hrs by DNA staining based MAR3D7 growth inhibition assay; assay type: functional, organism-based; details: 3D7, 72 h
HepG2 = test: Cytotoxicity against human HepG2 cells after 72 hrs by […] CellTiterGlo reagent assay; assay type: cell-based; details: HepG2, 72 h
HEK293 = test: Cytotoxicity against human HEK293 cells after 72 hrs by […] CellTiterGlo reagent assay; assay type: cell-based; details: HEK293, 72 h
Plasmodium falciparum [2] = test: Antimalarial activity against […] incubated for 72 hrs by DNA staining based MARK1 growth inhibition assay; assay type: functional, organism-based

Structure (SMILES)	pEC50 (BJ)	pEC50 (Raji)	pEC50 (Plasmodium falciparum [1])	pEC50 (HepG2)	pEC50 (HEK293)	pEC50 (Plasmodium falciparum [2])
CC(C)N(Cc1cccc(OCCCCCC(=O)O)c1)C(=O)c1ccc(-c2ccc3[nH]ccc3c2)cc1	< 4.58	< 4.58	< 4.82	< 4.58	< 4.58	< 4.82
CCOC(=O)CCCCCOc1cccc(CN(C(=O)c2ccc(-c3ccc4c(c3)OCCO4)cc2)C(C)C)c1	< 4.61	< 4.61	< 4.87	< 4.61	< 4.61	< 4.87
CCCN(Cc1ccc(OCCCCCC(=O)O)cc1)C(=O)c1ccc(-c2ccc3c(c2)OCO3)cc1	< 4.58	< 4.58	< 4.82	< 4.58	< 4.58	6.03
CCOC(=O)CCCCCOc1cccc(CN(C(=O)c2ccc(-c3cccc(C(C)=O)c3)cc2)C(C)C)c1	< 4.58	< 4.58	< 5.82	< 4.58	< 4.58	< 4.82
Cc1nnc(-c2cccc(-c3ccc(C(=O)N(Cc4cccc(OCCCCCC(=O)O)c4)C(C)C)cc3)c2)o1	< 4.58	< 4.58	< 4.82	< 4.58	< 4.58	< 4.82
CCCNCc1ccccc1OCCCCCC(=O)OCC	< 4.58	< 4.58	< 4.82	< 4.58	< 4.58	< 4.82
CCOC(=O)CCCCCOc1cccc(CN(C(=O)c2ccc(-c3cccc4ccccc34)cc2)C(C)C)c1	< 4.58	< 4.58	< 4.82	< 4.58	< 4.58	< 4.82
CCOC(=O)CCCCCOc1cccc(CN(C(=O)c2ccc(-c3cc(F)cc(OC)c3)cc2)C(C)C)c1	< 4.58	< 4.58	< 4.82	< 4.58	< 4.58	< 4.82
CC(C)N(Cc1cccc(OCCCCCC(=O)O)c1)C(=O)c1ccc(-c2ccsc2)cc1	< 4.58	< 4.58	< 4.82	< 4.58	< 4.58	< 4.82
CCOC(=O)CCCCCOc1cccc(CN(C(=O)c2ccc(-c3ccc(Cl)c(Cl)c3)cc2)C(C)C)c1	< 4.58	< 4.58	< 4.82	< 4.58	< 4.58	< 4.82
CC(C)N(Cc1cccc(OCCCCCC(=O)O)c1)C(=O)c1ccc(-c2ccco2)cc1	< 4.58	< 4.58	< 4.82	< 4.58	< 4.58	< 4.82
CC(C)Oc1cccc(-c2ccc(C(=O)N(Cc3cccc(OCCCCCC(=O)O)c3)C(C)C)cc2)c1	< 4.58	< 4.58	< 4.82	< 4.58	< 4.58	< 4.82
COc1ccc(F)c(-c2ccc(C(=O)N(Cc3cccc(OCCCCCC(=O)O)c3)C(C)C)cc2)c1	< 4.58	< 4.58	< 4.82	< 4.58	< 4.58	< 4.82
CCOC(=O)CC(=O)NCC(OCC)(OCC)c1ccc2c(c1)OCO2	< 4.89	< 4.89	< 5.12	< 4.89	< 4.89	< 5.12
CCOC(=O)CCCCCOc1cccc(CN(C(=O)c2ccc(Br)cc2)C(C)C)c1	< 4.58	< 4.58	< 4.82	< 4.58	< 4.58	< 4.82
CCOC(=O)CCCCCOc1cccc(CN(C(=O)c2ccc(-c3ccc4cc[nH]c4c3)cc2)C(C)C)c1	< 4.58	< 4.58	< 4.82	< 4.58	< 4.58	< 4.82
CCCN(Cc1cccc(OCCCCCC(=O)O)c1)C(=O)c1ccc(-c2ccc3c(c2)OCO3)cc1	< 4.58	< 4.58	6.76	< 4.58	< 4.58	6.00
CCOC(=O)CCCCCOc1cccc(CN(C(=O)c2ccccc2)C(C)C)c1	< 4.58	< 4.58	< 4.82	< 4.58	< 4.58	< 4.90
CCOC(=O)CCCCCOc1cccc(CN(C(=O)c2ccc(-c3ccncc3)cc2)C(C)C)c1	< 4.58	< 4.58	> 9.10	< 4.58	< 4.58	9.10
CC(C)N(Cc1cccc(OCCCCCC(=O)O)c1)C(=O)c1ccc(-c2cccc(OCc3ccccc3)c2)cc1	< 4.58	< 4.58	< 4.82	< 4.58	< 4.58	< 4.82
CCOC(=O)CCCCCOc1ccccc1CN(C(=O)c1ccc(-c2ccc3c(c2)OCO3)cc1)C(C)C	< 4.58	< 4.58	< 4.82	< 4.58	< 4.58	< 4.82
CCOC(=O)CCCCCOc1cccc(CN(C(=O)c2ccc(-c3cccc(OCC)c3)cc2)C(C)C)c1	< 4.65	< 4.65	< 4.91	< 4.65	< 4.65	< 4.91
